According to PMC8228600, “Design, Synthesis, In Vitro and In Vivo Evaluation of Heterobivalent SiFAlin-Modified Peptidic Radioligands Targeting Both Integrin αvβ3 and the MC1 Receptor—Suitable for the Specific Visualization of Melanomas?” (Pharmaceuticals, 2021):
Where two headings read alike, the source gives them in different places. Where a SMILES comes first, the peptide text is derived from it. [ ]: non-standard residue; d: D form.

Assays:
integrin αvβ3 = molecular target: T1, integrin αvβ3 (Homo sapiens, UniProt P05106+P06756); assay: Competitive displacement assay on integrin αvβ3-positive U87MG cells vs [125I]I-echistatin; format: binding
T1 construct: host or cells: U87MG human glioblastoma cells (whole cells)
Description: (§1) As in vitro receptor affinities represent an important parameter for the in vivo tumor uptake of radiotracers, the binding affinities of 1–6 were determined to both target receptors—integrin αvβ3 and the MC1R—in competitive displacement assays.
(§2) Murine melanoma cells (B16F10) and human glioblastoma cells (U87MG) as well as Dulbecco’s Modified Eagle’s Medium (DMEM) and Eagle’s Minimum Essential Medium (EMEM) were purchased from ATCC (Wesel, Germany). Fetal calf serum (FCS) was obtained from Bio&SELL (Feucht, Germany); phosphate-buffered saline (PBS), 1,10-phenanthroline, tris(hydroxymethyl)aminomethane hydrochloride (Tris·HCl) and manganese chloride (MnCl2) were obtained from Sigma-Aldrich (Taufkirchen, Germany); penicillin/streptomycin (pen/strep) and 0.25% Trypsin with 0.02% EDTA-solution in PBS were obtained from Gibco (Schwerte, Germany); 2-(4-(2-hydroxyethyl)-1-piperazinyl)-ethanesulfonic acid (HEPES) was obtained from Gerbu (Heidelberg, Germany); bovine serum albumin (BSA), sodium chloride (NaCl), calcium chloride (CaCl2) and magnesium chloride (MgCl2) were obtained from Carl Roth (Karlsruhe, Germany). [^125I]I-NDP (NEX352, 81.4 GBq/μmol) and [^125I]I-echistatin (NEX083, 81.4 GBq/μmol) were purchased from PerkinElmer (Rodgau, Germany). γ-counting was performed using a 2480 Wizard^2 gamma counter system from PerkinElmer.
(§3) To determine the binding affinity to the respective receptor, competitive displacement studies were performed on MC1R-expressing B16F10 and on integrin αvβ3-expressing U87MG cells. Each compound was evaluated at least three times, each experiment being performed in triplicate. As radioligands, [^125I]I-NDP (81.4 GBq/μmol) and [^125I]I-echistatin (81.4 GBq/μmol) were used as competitors. First, the Millipore MultiScreen 96-well filter plate was incubated with 200 μL/well of a BSA/PBS (1/99, w/v) solution at 25 °C for 1 h. After preparing the binding buffers (DMEM with 25 mM HEPES, 0.3 mM 1,10-phenanthroline and 0.2% BSA; EMEM with 20 mM Tris·HCl, 150 mM NaCl, 2 mM CaCl2, 1 mM MgCl2, 1 mM MnCl2 and 0.1% BSA), the dilution series of the HBPLs 1–6 (0.04–4 μM and 2–400 μM) and the reference agents 36–39 (0.01–1 μM and 0.04–400 μM) were prepared in the respective binding buffer. The solution of the respective radioligand was prepared by adding 55–75 kBq of the respective ^125I-labeled competitor to 3.5 mL of binding buffer. The respective cells were harvested and re-suspended in the binding buffer to give a cell concentration of 2 × 10^6/mL. After the BSA solution was filtered using the Millipore Multiscreen vacuum manifold, 50 μL of a cell suspension containing 10^5 cells were seeded in each well. Subsequently, 25 μL of the ^125I-labeled competitor solution (0.018 kBq/μL) and 25 μL of the respective compound to be tested were added. The compound to be tested was added in eleven increasing concentrations, whereas the 12th well contained no test compound to ensure the 100% binding of the ^125I-labeled competitor. After incubation of the plate for another hour at 25°C, the solution was filtrated using the Millipore Multiscreen vacuum manifold, and the cells were washed three times with cold PBS (1 × 200 μL, 2 × 100 μL). Using a Millipore MultiScreen disposable punch and a Millipore MultiScreen punch kit, the filters of the well plate were collected in γ-counter tubes separately and measured by γ-counting. The determination of the half-maximal inhibitory concentration (IC50) values was performed by fitting the obtained data via nonlinear regression using GraphPad Prism (v6.05).

MC1R = molecular target: T2, MC1R (Mus musculus, UniProt Q01727); assay: Competitive displacement assay on MC1R-positive B16F10 cells vs [125I]I-NDP; format: binding, murine
T2 construct: host or cells: B16F10 murine melanoma cells (whole cells)
Description: as §1, §2, §3

| Compound | IC50 (integrin αvβ3) | IC50 (MC1R) | also measured |
| --- | --- | --- | --- |
| N=C(N)NCCC[C@@H]1NC(=O)[C@H](CS)NC(=O)[C@@H](Cc2ccccc2)NC(=O)[C@H](CC(=O)O)NC(=O)CNC1=O [c(RGDfC), reference compound] (cyclo(RGD[dF]C)) |  |  | IC50 (integrin αvβ3; integrin αvβ3-positive U87MG cells, competitor [125I]I-echistatin, mean ± SD, read-out: IC50 (U87MG)): 1490 ± 210 nM |
| NDP: superpotent synthetic analog of the endogenous ligand α-MSH; reference and blocking substance [reference compound] |  |  | IC50 (MC1R; MC1R-positive B16F10 cells, competitor [125I]I-NDP, mean ± SD, read-out: IC50 (B16F10)): 0.17 ± 0.04 nM |
| CCCC[C@H](NC(=O)CNC(=O)CNC(=O)CCOCCOCCOCCOCCC(=O)NCCCN(CCCNC(=O)CCOCCOCCOCCOCCC(=O)NCCCC[C@@H]1NC(=O)[C@@H](Cc2ccccc2)NC(=O)[C@H](CC(=O)O)NC(=O)CNC(=O)[C@H](CCCNC(=N)N)NC1=O)CC(=O)N[C@@H](CCCCNC(=O)CCC[N+](C)(C)Cc1ccc([Si](F)(C(C)(C)C)C(C)(C)C)cc1)C(N)=O)C(=O)N[C@H]1CC(=O)NCCCC[C@@H](C(N)=O)NC(=O)[C@H](Cc2c[nH]c3ccccc23)NC(=O)[C@H](CCCNC(=N)N)NC(=O)[C@@H](Cc2ccccc2)NC(=O)[C@H](Cc2c[nH]cn2)NC1=O [HBPL 2, SiFAlin-APG-PEG3-c(RGDfK)/GG-Nle-c(DHfRWK)] | 1300 ± 288 nM | 0.99 ± 0.11 nM |  |
| CCCC[C@H](NC(=O)CNC(=O)CNC(=O)CCOCCOCCC(=O)NCCCN(CCCNC(=O)CCOCCOCCC(=O)NCCCC[C@@H]1NC(=O)[C@@H](Cc2ccccc2)NC(=O)[C@H](CC(=O)O)NC(=O)CNC(=O)[C@H](CCCNC(=N)N)NC1=O)CC(=O)N[C@@H](CCCCNC(=O)CCC[N+](C)(C)Cc1ccc([Si](F)(C(C)(C)C)C(C)(C)C)cc1)C(N)=O)C(=O)N[C@H]1CC(=O)NCCCC[C@@H](C(N)=O)NC(=O)[C@H](Cc2c[nH]c3ccccc23)NC(=O)[C@H](CCCNC(=N)N)NC(=O)[C@@H](Cc2ccccc2)NC(=O)[C@H](Cc2c[nH]cn2)NC1=O [HBPL 1, SiFAlin-APG-PEG1-c(RGDfK)/GG-Nle-c(DHfRWK)] | 2880 ± 757 nM | 1.74 ± 0.25 nM |  |
| CCCC[C@H](NC(=O)CNC(=O)CNC(=O)CCOCCOCCOCCOCCOCCOCCC(=O)NCCCN(CCCNC(=O)CCOCCOCCOCCOCCOCCOCCC(=O)NCCCC[C@@H]1NC(=O)[C@@H](Cc2ccccc2)NC(=O)[C@H](CC(=O)O)NC(=O)CNC(=O)[C@H](CCCNC(=N)N)NC1=O)CC(=O)N[C@@H](CCCCNC(=O)CCC[N+](C)(C)Cc1ccc([Si](F)(C(C)(C)C)C(C)(C)C)cc1)C(N)=O)C(=O)N[C@H]1CC(=O)NCCCC[C@@H](C(N)=O)NC(=O)[C@H](Cc2c[nH]c3ccccc23)NC(=O)[C@H](CCCNC(=N)N)NC(=O)[C@@H](Cc2ccccc2)NC(=O)[C@H](Cc2c[nH]cn2)NC1=O [HBPL 3, SiFAlin-APG-PEG5-c(RGDfK)/GG-Nle-c(DHfRWK)] | 1910 ± 70 nM | 3.44 ± 0.09 nM |  |
| CCCC[C@H](NC(=O)CNC(=O)CNC(=O)COCC(=O)NCCCN(CCCNC(=O)COCC(=O)NCCCC[C@@H]1NC(=O)[C@@H](Cc2ccccc2)NC(=O)[C@H](CC(=O)O)NC(=O)CNC(=O)[C@H](CCCNC(=N)N)NC1=O)CC(=O)N[C@@H](CCCCNC(=O)CCC[N+](C)(C)Cc1ccc([Si](F)(C(C)(C)C)C(C)(C)C)cc1)C(N)=O)C(=O)N[C@H]1CC(=O)NCCCC[C@@H](C(N)=O)NC(=O)[C@H](Cc2c[nH]c3ccccc23)NC(=O)[C@H](CCCNC(=N)N)NC(=O)[C@@H](Cc2ccccc2)NC(=O)[C@H](Cc2c[nH]cn2)NC1=O [HBPL 5, SiFAlin-APG-DIG-c(RGDfK)/GG-Nle-c(DHfRWK)] | 5900 ± 722 nM | 2.05 ± 0.35 nM |  |
| N=C(N)NCCC[C@@H]1NC(=O)[C@H](CCCCN)NC(=O)[C@@H](Cc2ccccc2)NC(=O)[C@H](CC(=O)O)NC(=O)CNC1=O [c(RGDfK), cyclic Arg-Gly-Asp-DPhe-Lys, reference compound] |  |  | receptor-specific binding to MC1R (MC1R; B16F10 cells, same conditions as IC50 assay (Figure S92)): no receptor-specific binding |
| Gly-Gly-Nle-cyclic Asp-His-DPhe-Arg-Trp-Lys [GG-Nle-c(DHfRWK), reference compound] |  |  | receptor-specific binding to integrin αvβ3 (integrin αvβ3; U87MG cells, same conditions as IC50 assay (Figure S92)): no receptor-specific binding |
| CCCC[C@H](NC(=O)CNC(=O)CNC(=O)[C@H](CCC(=O)O)NC(=O)CNC(=O)[C@H](CCC(=O)O)NC(=O)CNC(=O)[C@H](CCC(=O)O)NC(=O)C(=O)NCCCN(CCCNC(=O)C(=O)N[C@@H](CCC(=O)O)C(=O)NCC(=O)N[C@@H](CCC(=O)O)C(=O)NCC(=O)N[C@@H](CCC(=O)O)C(=O)NCCCC[C@@H]1NC(=O)[C@@H](Cc2ccccc2)NC(=O)[C@H](CC(=O)O)NC(=O)CNC(=O)[C@H](CCCNC(=N)N)NC1=O)CC(=O)N[C@@H](CCCCNC(=O)CCC[N+](C)(C)Cc1ccc([Si](F)(C(C)(C)C)C(C)(C)C)cc1)C(N)=O)C(=O)N[C@H]1CC(=O)NCCCC[C@@H](C(N)=O)NC(=O)[C@H](Cc2c[nH]c3ccccc23)NC(=O)[C@H](CCCNC(=N)N)NC(=O)[C@@H](Cc2ccccc2)NC(=O)[C@H](Cc2c[nH]cn2)NC1=O [HBPL 6, SiFAlin-APG-Ox-EGEGE-c(RGDfK)/GG-Nle-c(DHfRWK)] | > 100000 nM | 4.18 ± 0.32 nM | IC50 (U87MG) (integrin αvβ3; integrin αvβ3-positive U87MG cells, competitor [125I]I-echistatin, mean ± SD): could not be determined |
| CCCC[C@H](NC(=O)CNC(=O)CNC(=O)CCOCCOCCOCCOCCOCCOCCOCCOCCOCCC(=O)NCCCN(CCCNC(=O)CCOCCOCCOCCOCCOCCOCCOCCOCCOCCC(=O)NCCCC[C@@H]1NC(=O)[C@@H](Cc2ccccc2)NC(=O)[C@H](CC(=O)O)NC(=O)CNC(=O)[C@H](CCCNC(=N)N)NC1=O)CC(=O)N[C@@H](CCCCNC(=O)CCC[N+](C)(C)Cc1ccc([Si](F)(C(C)(C)C)C(C)(C)C)cc1)C(N)=O)C(=O)N[C@H]1CC(=O)NCCCC[C@@H](C(N)=O)NC(=O)[C@H](Cc2c[nH]c3ccccc23)NC(=O)[C@H](CCCNC(=N)N)NC(=O)[C@@H](Cc2ccccc2)NC(=O)[C@H](Cc2c[nH]cn2)NC1=O [HBPL 4, SiFAlin-APG-PEG8-c(RGDfK)/GG-Nle-c(DHfRWK)] | 2030 ± 323 nM | 6 ± 0.47 nM |  |
